# System: C. albicans
# Assay: Cell viability by membrane integrity, propidium iodide (PI) flow cytometry
# Assay type: cell-based
# Method: • Figure 1. Checkerboard assay showing the potentiation of the antifungal caspofungin by the compound MDN-0018. In this assay, dose response curves of the compound MDN-0018 (8 to 0.015 µg/mL) are performed from left to right and dose response curves of caspofungin (0.24 to 0.018 µg/mL) are performed from top to bottom. Other known antifungal compounds (echinocandins, azoles and polyenes) were tested, obtaining a similar checkboard. […] Determination of the potentiation of caspofungin activity by the compound MDN-0018 against A. fumigatus. Study of the optimum concentration of the compounds MDN-0018 and caspofungin where maximum enhancement of caspofungin is reached is shown in Figure 2.1. In addition, the graphic representation of curves, in duplicate, of the caspofungin potentiated by the compound MDN-0018 is shown in Figure 2.1. Each curve represents a curve of caspofungin from 0.24 to 0.018 µg/mL ([…]) with set concentrations of the MDN-0018 compound from 8 to 0.015 µg/mL (8.86 to 0.017 µM). • Figure 3. Flow cytometry experiments to determine cellular viability by changes in membrane permeability using propidium iodide (PI) as probe. […]
# Cell viability was determined by changes in membrane permeability, live cells with intact membranes are distinguished by their ability to exclude dyes that easily penetrate dead or damaged cells. […]
smiles,measurement,setting,value
CC[C@H](C)C[C@H](C)CCCCCCCCC(=O)N[C@H]1C[C@@H](O)[C@@H](NCCN)NC(=O)[C@@H]2[C@@H](O)CCN2C(=O)[C@H]([C@H](O)CCN)NC(=O)[C@H]([C@H](O)[C@@H](O)c2ccc(O)cc2)NC(=O)[C@@H]2C[C@@H](O)CN2C(=O)[C@H]([C@@H](C)O)NC1=O [caspofungin],"cellular viability by changes in membrane permeability (PI), flow cytometry profile",1 µg/mL of caspofungin,damaged population
same,"cellular viability by changes in membrane permeability (PI), flow cytometry profile",sublethal dose of caspofungin (0.015 µg/mL),same profile as the non treated cells

# — EP2792683A1, “Compounds potentiating the activity of antifungal drugs” (Fundacion MEDINA. Centro de Excelencia en Investigacion de …, priority 2013, dated 2014)
